Measurements taken from paper PMC7558399, “In Vitro Selective Growth-Inhibitory Activities of Phytochemicals, Synthetic Phytochemical Analogs, and Antibiotics against Diarrheagenic/Probiotic Bacteria and Cancer/Normal Intestinal Cells” (Pharmaceuticals, 2020).
Values after ≈ are worked out from the molar mass of the structure shown. Like-named read-outs stand apart in the source and are kept apart here.

Assays:
Assay type in all cases: cell-based
[1] = system: Salmonella enterica ssp. enterica serovar Enteritidis (ATCC 13076); assay: Broth microdilution MIC, Salmonella Enteritidis; conditions: Salmonella Enteritidis, growth inhibited by ≥80%, read-out: MIC
[2] = system: Clostridium perfringens (DSMZ 11778); assay: microbe, parasite or virus in culture; conditions: DSMZ11778
[3] = system: E. coli 0175:H7 (NCTC 12900); assay: microbe, parasite or virus in culture; conditions: Escherichia coli, NCTC12900
[4] = system: Escherichia coli (ATCC 25922); assay: Broth microdilution MIC, E. coli; conditions: ATCC25922, growth inhibited by ≥80%, read-out: MIC
[5] = system: S. enterica ssp. enterica serovar Typhimurium (ATCC 14028); assay: Broth microdilution MIC, Salmonella Typhimurium; conditions: Salmonella Typhimurium, growth inhibited by ≥80%, read-out: MIC
[6] = system: Bifidobacterium breve (ATCC 15700); assay: Broth microdilution MIC, B. breve; conditions: ATCC15700, growth inhibited by ≥80%, read-out: MIC
[7] = system: diarrheagenic bacteria (12 strains); assay: organism not typed
[8] = system: Bacillus cereus (ATCC 14579); assay: Broth microdilution MIC, B. cereus; conditions: median/mode, read-out: MIC
[9] = system: Enterococcus faecalis (ATCC 29212); assay: Broth microdilution MIC, E. faecalis; conditions: ATCC29212, growth inhibited by ≥80%, read-out: MIC
[10] = system: Caco-2 (ATCC HTB 37) intestinal cancer cells; assay: MTT cytotoxicity assay, Caco-2; conditions: Homo sapiens, Caco-2, MTT, 72 h; for IC50: read-out: IC50 ± SD; for IC80: read-out: IC80 ± SD (80% inhibitory concentration of proliferation)
[11] = system: Vibrio parahaemolyticus (ATCC 17802); assay: Broth microdilution MIC, V. parahaemolyticus; conditions: ATCC17802, growth inhibited by ≥80%, read-out: MIC
[12] = system: Bifidobacterium bifidum (ATCC 29521); assay: Broth microdilution MIC, B. bifidum; conditions: ATCC29521, growth inhibited by ≥80%, read-out: MIC
[13] = system: Clostridium difficile (DSMZ 12056); assay: microbe, parasite or virus in culture; conditions: Clostridioides difficile, DSMZ12056, Clostridium difficile, read-out: MIC
[14] = system: Bifidobacterium animalis spp. lactis (DSMZ 10140); assay: Broth microdilution MIC, B. animalis spp. lactis; conditions: DSMZ10140; Bifidobacterium animalis spp. lactis; growth inhibited by ≥80%; read-out: MIC
[15] = system: Shigella flexneri (ATCC 12022); assay: microbe, parasite or virus in culture; conditions: ATCC12022
[16] = system: Lactobacillus reuteri (CCM 3625); assay: Broth microdilution MIC, L. reuteri; conditions: Limosilactobacillus reuteri, CCM3625; Lactobacillus reuteri; growth inhibited by ≥80%; read-out: MIC
[17] = system: Bifidobacterium longum ssp. longum (DSMZ 20219); assay: Broth microdilution MIC, B. longum ssp. longum; conditions: DSMZ20219; Bifidobacterium longum ssp. longum; growth inhibited by ≥80%; read-out: MIC
[18] = system: HT29 (ATCC HTB 38) intestinal cancer cells; assay: MTT cytotoxicity assay, HT29; conditions: Homo sapiens, HT-29, HT29, MTT, 72 h; for IC50: read-out: IC50 ± SD; for IC80: read-out: IC80 ± SD (80% inhibitory concentration of proliferation)
[19] = system: Listeria monocytogenes (ATCC 7644); assay: Broth microdilution MIC, L. monocytogenes; conditions: ATCC7644, growth inhibited by ≥80%, read-out: MIC
[20] = system: intestinal cancer cells (HT29 and Caco-2); assay: MTT cytotoxicity assay, mean for intestinal cancer cells; conditions: for IC50: mean of HT29 and Caco-2, >512 replaced with 1024, read-out: x¯ -CC ± SD: mean IC50 for intestinal cancer cells; for IC80: read-out: x¯ -CC ± SD: mean IC80 for intestinal cancer cells
[21] = system: Bacteroides fragilis (ATCC 25285); assay: Broth microdilution MIC, B. fragilis
[22] = system: FHs 74 Int (ATCC CCL 241) intestinal normal cells; assay: MTT cytotoxicity assay, FHs 74 Int; conditions: FHs 74 Int (intestinal normal cells), MTT, 72 h; for IC50 / IC80: FHs74Int; for IC50: read-out: IC50 ± SD; for IC80: read-out: IC80 ± SD (80% inhibitory concentration of proliferation)
[23] = system: probiotic bacteria (9 strains); assay: Broth microdilution MIC, probiotic bacteria as a group (mean or range over strains)
[24] = system: Yersinia enterocolitica (ATCC 9610); assay: Broth microdilution MIC, Y. enterocolitica; conditions: ATCC9610, growth inhibited by ≥80%, read-out: MIC
[25] = system: Bifidobacterium adolescentis (DSMZ 20087); assay: Broth microdilution MIC, B. adolescentis; conditions: DSMZ20087, growth inhibited by ≥80%, read-out: MIC
[26] = system: Lactobacillus casei (DSMZ 20011); assay: Broth microdilution MIC, L. casei; conditions: Lacticaseibacillus casei, DSMZ20011; Lactobacillus casei; growth inhibited by ≥80%; read-out: MIC
[27] = system: Lactobacillus rhamnosus (CCM 7091); assay: Broth microdilution MIC, L. rhamnosus; conditions: Lacticaseibacillus rhamnosus, CCM7091; Lactobacillus rhamnosus; growth inhibited by ≥80%; read-out: MIC
[28] = mean of 12 strains, >512 replaced with 1024, read-out: x¯ -DB ± SD: mean MIC for diarrheagenic bacteria
[29] = mean of 9 strains, >512 replaced with 1024, read-out: x¯ -PB ± SD: mean MIC for probiotic bacteria
[30] = ATCC14579, growth inhibited by ≥80%
[31] = ATCC25285, growth inhibited by ≥80%, read-out: MIC

SMILES: CO/N=C(\C(=O)N[C@@H]1C(=O)N2C(C(=O)O)=C(CSc3nc(=O)c(=O)[nH]n3C)CS[C@H]12)c1csc(N)n1 [CF, ceftriaxone sodium]
- MIC [1]: 0.25 µg/mL
- MIC [2]: 4 µg/mL
- MIC [3]: 0.5 µg/mL
- MIC [4]: 0.062 µg/mL
- MIC [5]: 0.25 µg/mL
- MIC [6]: 32 µg/mL
- MIC ([7]; all gram-negative diarrheagenic bacteria, range over strains, read-out: MICs): 0.062 to 0.5 µg/mL
- MIC ([7]; gram-positive pathogens, range over strains, read-out: MICs): 4 to 512 µg/mL
- MIC [7, 28]: 61.8 ± 141 µg/mL
- MIC ([8]; ATCC14579, […]): 128 µg/mL
- MIC [9]: 512 µg/mL
- IC50 [10]: > 512 µg/mL
- IC80 [10]: > 512 µg/mL
- MIC [11]: 0.125 µg/mL
- MIC [12]: 4 µg/mL
- MIC ([13]; […]): 64 µg/mL
- MIC [14]: 2 µg/mL
- MIC [15]: 0.5 µg/mL
- MIC [16]: 0.5 µg/mL
- MIC [17]: 8 µg/mL
- IC50 [18]: > 512 µg/mL
- IC80 [18]: > 512 µg/mL
- MIC [19]: 32 µg/mL
- IC50 [20]: > 512 µg/mL
- IC80 [20]: > 512 µg/mL
- MIC ([21]; ATCC25285): 128 µg/mL
- IC50 ± SD [22]: - (Not active (MIC/IC50/80 > 512 μg/mL, the value 1024 μg/mL was used for average calculation))
- IC80 ± SD (80% inhibitory concentration of proliferation) [22]: - (Not active (MIC/IC50/80 > 512 μg/mL, the value 1024 μg/mL was used for average calculation))
- IC50 [22]: > 512 µg/mL
- IC80 [22]: > 512 µg/mL
- MIC ([23]; Bifidobacterium breve and Bifidobacterium longum ssp. longum, read-out: MICs): 8 to 32 µg/mL
- MIC ([23]; lactobacilli, range over strains, read-out: MICs): 0.5 to 32 µg/mL
- MIC [23, 29]: 26.6 ± 38 µg/mL
- MIC ([23]; remaining bifidobacteria (other than B. breve and B. longum ssp. longum), read-out: MICs): 1 to 4 µg/mL
- MIC [24]: 0.25 µg/mL
- MIC [25]: 1 µg/mL
- MIC [26]: 32 µg/mL
- MIC [27]: 32 µg/mL

SMILES: Oc1c(Cl)cc(Cl)c2cccnc12 [CLX, 5,7-dichloroquinolin-8-ol]
- MIC [1]: 64 µg/mL (≈ 299 µM)
- MIC [2]: 16 µg/mL (≈ 74.7 µM)
- MIC [3]: 64 µg/mL (≈ 299 µM)
- MIC [4]: 16 µg/mL (≈ 74.7 µM)
- MIC [5]: 16 µg/mL (≈ 74.7 µM)
- MIC [6]: 64 µg/mL (≈ 299 µM)
- MIC [7, 28]: 24 ± 19 µg/mL (≈ 112 µM)
- MIC [8, 30]: 8 µg/mL (≈ 37.4 µM)
- MIC [9]: 16 µg/mL (≈ 74.7 µM)
- IC50 [10]: 1.3 ± 0.04 µg/mL (≈ 6.07 µM)
- IC80 [10]: 5.9 ± 0.7 µg/mL (≈ 27.6 µM)
- MIC [11]: 16 µg/mL (≈ 74.7 µM)
- MIC [12]: > 512 µg/mL
- MIC ([13]; growth inhibited by ≥80%): 8 µg/mL (≈ 37.4 µM)
- MIC [14]: 512 µg/mL (≈ 2390 µM)
- MIC [15]: 16 µg/mL (≈ 74.7 µM)
- MIC [16]: 128 µg/mL (≈ 598 µM)
- MIC [17]: 64 µg/mL (≈ 299 µM)
- IC50 [18]: 3.7 ± 0.3 µg/mL (≈ 17.3 µM)
- IC80 [18]: 5 ± 0.7 µg/mL (≈ 23.4 µM)
- MIC [19]: 32 µg/mL (≈ 149 µM)
- IC50 [20]: 2.5 ± 1.2 µg/mL (≈ 11.7 µM)
- IC80 [20]: 5.4 ± 0.5 µg/mL (≈ 25.2 µM)
- MIC [21, 31]: 32 µg/mL (≈ 149 µM)
- IC50 [22]: 0.5 ± 0.02 µg/mL (≈ 2.34 µM)
- IC80 [22]: 2 ± 0.1 µg/mL (≈ 9.34 µM)
- MIC [23, 29]: 245 ± 306 µg/mL (≈ 1150 µM)
- MIC [24]: 16 µg/mL (≈ 74.7 µM)
- MIC [25]: 128 µg/mL (≈ 598 µM)
- MIC [26]: 128 µg/mL (≈ 598 µM)
- MIC [27]: 128 µg/mL (≈ 598 µM)

SMILES: O=[N+]([O-])c1ccc(O)c2ncccc12 [NXL, 5-nitroquinolin-8-ol]
- MIC [1]: 16 µg/mL (≈ 84.1 µM)
- MIC [2]: 4 µg/mL (≈ 21 µM)
- MIC [3]: 32 µg/mL (≈ 168 µM)
- MIC [4]: 4 µg/mL (≈ 21 µM)
- MIC [5]: 16 µg/mL (≈ 84.1 µM)
- MIC [6]: 32 µg/mL (≈ 168 µM)
- MIC ([7]; B. cereus, clostridial species, E. coli, and S. flexneri, read-out: MICs): 2 to 4 µg/mL (≈ 10.5 to 21 µM)
- MIC [7, 28]: 12 ± 10 µg/mL (≈ 63.1 µM)
- MIC [8, 30]: 4 µg/mL (≈ 21 µM)
- MIC [9]: 32 µg/mL (≈ 168 µM)
- IC50 [10]: 1.1 ± 0.03 µg/mL (≈ 5.78 µM)
- IC80 [10]: 5 ± 1.5 µg/mL (≈ 26.3 µM)
- MIC [11]: 8 µg/mL (≈ 42.1 µM)
- MIC [12]: 16 µg/mL (≈ 84.1 µM)
- MIC ([13]; […]): 2 µg/mL (≈ 10.5 µM)
- MIC [14]: 32 µg/mL (≈ 168 µM)
- MIC [15]: 2 µg/mL (≈ 10.5 µM)
- MIC [16]: 16 µg/mL (≈ 84.1 µM)
- MIC [17]: 16 µg/mL (≈ 84.1 µM)
- IC50 [18]: 2.6 ± 0.3 µg/mL (≈ 13.7 µM)
- IC80 [18]: 3.7 ± 0.4 µg/mL (≈ 19.5 µM)
- MIC [19]: 16 µg/mL (≈ 84.1 µM)
- IC50 [20]: 1.8 ± 0.8 µg/mL (≈ 9.47 µM)
- IC80 [20]: 4.4 ± 0.7 µg/mL (≈ 23.1 µM)
- MIC [21, 31]: 4 µg/mL (≈ 21 µM)
- IC50 [22]: 0.4 ± 0.05 µg/mL (≈ 2.1 µM)
- IC80 [22]: 0.8 ± 0.05 µg/mL (≈ 4.21 µM)
- MIC [23, 29]: 20 ± 9 µg/mL (≈ 105 µM)
- MIC [24]: 8 µg/mL (≈ 42.1 µM)
- MIC [25]: 16 µg/mL (≈ 84.1 µM)
- MIC [26]: 32 µg/mL (≈ 168 µM)
- MIC [27]: 16 µg/mL (≈ 84.1 µM)
